In the supplement of paper PMC10307832:

How the values were obtained:
Assay in all cases: relative viability (nuclei count vs DMSO), 5 days (fraction); higher = more cells survive
CAL-12T = test system: CAL-12T
Method in brief: (§1)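 Medians of duplicate plates are given as relative viability. That measure is the nuclei count in treated wells divided by the count in vehicle wells. Counts were taken on 4× images of lung cancer cell lines in 1536-well plates, 5 days after pin-tool dosing the day after seeding with one drug alone or a fixed anchor-drug dose plus five library-drug doses (not always all listed) in √10 steps.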

COR-L 105 = test system: COR-L 105
Method in brief: as §1

H3255 = test system: H3255
Method in brief: as §1

HARA = test system: HARA
Method in brief: as §1

HCC-15 = test system: HCC-15
Method in brief: as §1

HCC-366 = test system: HCC-366
Method in brief: as §1

LC-2-ad = test system: LC-2-ad
Method in brief: as §1

LU99A = test system: LU99A
Method in brief: as §1

NCI-H1395 = test system: NCI-H1395
Method in brief: as §1

NCI-H1666 = test system: NCI-H1666
Method in brief: as §1

NCI-H1734 = test system: NCI-H1734
Method in brief: as §1

NCI-H1944 = test system: NCI-H1944
Method in brief: as §1

NCI-H1975 = test system: NCI-H1975
Method in brief: as §1

NCI-H1993 = test system: NCI-H1993
Method in brief: as §1

NCI-H2228 = test system: NCI-H2228
Method in brief: as §1

NCI-H3122 = test system: NCI-H3122
Method in brief: as §1

NCI-H520 = test system: NCI-H520
Method in brief: as §1

NCI-H647 = test system: NCI-H647
Method in brief: as §1

NCI-H661 = test system: NCI-H661
Method in brief: as §1

NCI-H838 = test system: NCI-H838
Method in brief: as §1

PC-14 = test system: PC-14
Method in brief: as §1

PC-3 [JPC-3] = test system: PC-3 [JPC-3]
Method in brief: as §1

SK-LU-1 = test system: SK-LU-1
Method in brief: as §1

`O=C(O)CCCCC(CCSCc1ccccc1)SCc1ccccc1` (stereo not given) [CPI-613] + CS(=O)(=O)N1CCN(Cc2cc3nc(-c4cccc5[nH]ncc45)nc(N4CCOCC4)c3s2)CC1 [Pictilisib] (partner 1 µM) gave a relative viability (CAL-12T; first compound 5 µM) of 0.255, a relative viability (CAL-12T; first compound 15.81 µM) of 0.393 and a relative viability (CAL-12T; first compound 50 µM) of 0.453. The relative viability (CAL-12T; first compound 158.11 µM) was 0.385, the relative viability (CAL-12T; first compound 500 µM) was 0.102 and the relative viability (COR-L 105; first compound 5 µM) was 0.399. The relative viability (COR-L 105; first compound 15.81 µM) was 0.377, the relative viability (COR-L 105; first compound 50 µM) was 0.38 and the relative viability (COR-L 105; first compound 158.11 µM) was 0.328. For the same compound, the relative viability (COR-L 105; first compound 500 µM) was 0.288, the relative viability (H3255; first compound 5 µM) was 0.512 and the relative viability (H3255; first compound 15.81 µM) was 0.462. For the same compound, the relative viability (H3255; first compound 50 µM) was 0.452, the relative viability (H3255; first compound 158.11 µM) was 0.472 and the relative viability (H3255; first compound 500 µM) was 0.43. For the same compound, the relative viability (HARA; first compound 5 µM) was 0.474, the relative viability (HARA; first compound 15.81 µM) was 0.409 and the relative viability (HARA; first compound 50 µM) was 0.281. The relative viability (HARA; first compound 158.11 µM) was 0.242, the relative viability (HARA; first compound 500 µM) was 0.084 and the relative viability (HCC-15; first compound 5 µM) was 0.604. The relative viability (HCC-15; first compound 15.81 µM) was 0.664, the relative viability (HCC-15; first compound 50 µM) was 0.603 and the relative viability (HCC-15; first compound 158.11 µM) was 0.629. It also gave a relative viability (HCC-15; first compound 500 µM) of 0.238, a relative viability (HCC-366; first compound 5 µM) of 0.149 and a relative viability (HCC-366; first compound 15.81 µM) of 0.144. It also gave a relative viability (HCC-366; first compound 50 µM) of 0.154, a relative viability (HCC-366; first compound 158.11 µM) of 0.12 and a relative viability (HCC-366; first compound 500 µM) of 0.157. It also gave a relative viability (LC-2-ad; first compound 5 µM) of 0.455, a relative viability (LC-2-ad; first compound 15.81 µM) of 0.427 and a relative viability (LC-2-ad; first compound 50 µM) of 0.473. It also gave a relative viability (LC-2-ad; first compound 158.11 µM) of 0.211, a relative viability (LC-2-ad; first compound 500 µM) of 0.0075 and a relative viability (LU99A; first compound 5 µM) of 0.289. For the same compound, the relative viability (LU99A; first compound 15.81 µM) was 0.322, the relative viability (LU99A; first compound 50 µM) was 0.339 and the relative viability (LU99A; first compound 158.11 µM) was 0.256. It also gave a relative viability (LU99A; first compound 500 µM) of 0.0798, a relative viability (NCI-H1395; first compound 5 µM) of 0.623 and a relative viability (NCI-H1395; first compound 15.81 µM) of 0.782. For the same compound, the relative viability (NCI-H1395; first compound 50 µM) was 0.619, the relative viability (NCI-H1395; first compound 158.11 µM) was 0.645 and the relative viability (NCI-H1395; first compound 500 µM) was 0.51. For the same compound, the relative viability (NCI-H1666; first compound 5 µM) was 0.512, the relative viability (NCI-H1666; first compound 15.81 µM) was 0.351 and the relative viability (NCI-H1666; first compound 50 µM) was 0.404. It also gave a relative viability (NCI-H1666; first compound 158.11 µM) of 0.15, a relative viability (NCI-H1666; first compound 500 µM) of 0.0576 and a relative viability (NCI-H1734; first compound 5 µM) of 0.466. The relative viability (NCI-H1734; first compound 15.81 µM) was 0.383, the relative viability (NCI-H1734; first compound 50 µM) was 0.434 and the relative viability (NCI-H1734; first compound 158.11 µM) was 0.274. For the same compound, the relative viability (NCI-H1734; first compound 500 µM) was 0.113, the relative viability (NCI-H1944; first compound 5 µM) was 0.336 and the relative viability (NCI-H1944; first compound 15.81 µM) was 0.371. It also gave a relative viability (NCI-H1944; first compound 50 µM) of 0.351, a relative viability (NCI-H1944; first compound 158.11 µM) of 0.347 and a relative viability (NCI-H1944; first compound 500 µM) of 0.332. It also gave a relative viability (NCI-H1975; first compound 5 µM) of 0.292, a relative viability (NCI-H1975; first compound 15.81 µM) of 0.225 and a relative viability (NCI-H1975; first compound 50 µM) of 0.314. For the same compound, the relative viability (NCI-H1975; first compound 158.11 µM) was 0.258, the relative viability (NCI-H1975; first compound 500 µM) was 0.0574 and the relative viability (NCI-H1993; first compound 5 µM) was 0.762. It also gave a relative viability (NCI-H1993; first compound 15.81 µM) of 0.698, a relative viability (NCI-H1993; first compound 50 µM) of 0.715 and a relative viability (NCI-H1993; first compound 158.11 µM) of 0.648. The relative viability (NCI-H1993; first compound 500 µM) was 0.496, the relative viability (NCI-H2228; first compound 5 µM) was 0.429 and the relative viability (NCI-H2228; first compound 15.81 µM) was 0.382. The relative viability (NCI-H2228; first compound 50 µM) was 0.596, the relative viability (NCI-H2228; first compound 158.11 µM) was 0.374 and the relative viability (NCI-H2228; first compound 500 µM) was 0.0181. The relative viability (NCI-H3122; first compound 5 µM) was 0.587, the relative viability (NCI-H3122; first compound 15.81 µM) was 0.614 and the relative viability (NCI-H3122; first compound 50 µM) was 0.591. The relative viability (NCI-H3122; first compound 158.11 µM) was 0.605, the relative viability (NCI-H3122; first compound 500 µM) was 0.031 and the relative viability (NCI-H520; first compound 5 µM) was 0.271. For the same compound, the relative viability (NCI-H520; first compound 15.81 µM) was 0.279, the relative viability (NCI-H520; first compound 50 µM) was 0.286 and the relative viability (NCI-H520; first compound 158.11 µM) was 0.172. For the same compound, the relative viability (NCI-H520; first compound 500 µM) was 0.134, the relative viability (NCI-H647; first compound 5 µM) was 0.58 and the relative viability (NCI-H647; first compound 15.81 µM) was 0.315. It also gave a relative viability (NCI-H647; first compound 50 µM) of 0.384, a relative viability (NCI-H647; first compound 158.11 µM) of 0.424 and a relative viability (NCI-H647; first compound 500 µM) of 0.412. For the same compound, the relative viability (NCI-H661; first compound 5 µM) was 0.36, the relative viability (NCI-H661; first compound 15.81 µM) was 0.428 and the relative viability (NCI-H661; first compound 50 µM) was 0.442. The relative viability (NCI-H661; first compound 158.11 µM) was 0.355, the relative viability (NCI-H661; first compound 500 µM) was 0.367 and the relative viability (NCI-H838; first compound 5 µM) was 0.483. The relative viability (NCI-H838; first compound 15.81 µM) was 0.289, the relative viability (NCI-H838; first compound 50 µM) was 0.392 and the relative viability (NCI-H838; first compound 158.11 µM) was 0.299. For the same compound, the relative viability (NCI-H838; first compound 500 µM) was 0.0565, the relative viability (PC-14; first compound 5 µM) was 0.747 and the relative viability (PC-14; first compound 15.81 µM) was 0.677. For the same compound, the relative viability (PC-14; first compound 50 µM) was 0.637, the relative viability (PC-14; first compound 158.11 µM) was 0.725 and the relative viability (PC-14; first compound 500 µM) was 0.526. For the same compound, the relative viability (PC-3 [JPC-3]; first compound 5 µM) was 0.683, the relative viability (PC-3 [JPC-3]; first compound 15.81 µM) was 0.617 and the relative viability (PC-3 [JPC-3]; first compound 50 µM) was 0.656. The relative viability (PC-3 [JPC-3]; first compound 158.11 µM) was 0.636, the relative viability (PC-3 [JPC-3]; first compound 500 µM) was 0.404 and the relative viability (SK-LU-1; first compound 5 µM) was 0.533. It also gave a relative viability (SK-LU-1; first compound 15.81 µM) of 0.428, a relative viability (SK-LU-1; first compound 50 µM) of 0.49 and a relative viability (SK-LU-1; first compound 158.11 µM) of 0.46. For the same compound, the relative viability (SK-LU-1; first compound 500 µM) was 0.264.
